US10806746B2, “Di- and tri-cationic glycosylated antitumor ether lipids, L-gucosylated gaels and rhamnose-linked gaels as cytotoxic agents against epithelial cancer cells and cancer stem cells” (The University of Manitoba, priority 2014, dated 2020)
Read-outs that look alike come from different tables or passages of the source.

Legend:
[1] = tested on: JIMT-1 cells; test: MTS viability assay, JIMT-1 breast cancer cells; format: cell-based, human
Procedure: (§1) FIG. 2B. Effects of compounds 1-11 on the viability of JIMT-1 cells. JIMT-1 cells were cultured in DMEM medium supplemented with 10% FBS. Equal numbers were dispersed into 96-well plates. After 24 h, the cells were incubated with compounds 1-11 (0-30 μM) for 48 h. At the end of the incubation, MTS reagent (20% vol/vol) was added and the plates were incubated for 1-4 h. The OD490 was read with a plate reader. Wells with media but no cells were treated in similar fashion and the values utilized as blank. The results represent the mean±standard deviation of 6 independent determinations.
as §1, with “2J.” for “2B.”, “1, 69-72” for “1-11”, “1, 69-72” for “1-11 (0-30 μM)”
(§2) The cell lines were cultured from frozen stocks originally obtained from ATCC. MDA-MB-231, JIMT-1, DU145, U81, U251 cells were grown in DMEM medium. BT474, A2780s, A2780cp cells were grown in DMEM/F12 medium supplemented with 10% FBS. MiaPaCa2 was cultured in DMEM supplemented with 10% FBS and 2.5% horse serum. PC3 cells were cultured in F12K medium supplemented with 10% FBS. All the media were supplemented with penicillin/streptomycin.
(§3) The effects of the GAELs on the viability of the various epithelial cancer cell lines was determined as previously described. Briefly, equal numbers of the cells were dispersed into 96-well plates. After 24 h, the cells were incubated with the compounds (0-30 μM) for 48 h. At the end of the incubation, MTS reagent (20% vol/vol) was added and the plates were incubated for 1-4 h. The OD490 was read with a plate reader. Wells with media but no cells were treated in similar fashion and the values utilized as blank. The results represent the mean±standard deviation of 6 independent determinations.

[2] = tested on: BT-474 cells; test: MTS viability assay, BT-474 breast cancer cells; format: cell-based, human
Procedure: as §1, with “2C.” for “2B.”, “BT-474” for “JIMT-1”, “DMEM/F12” for “DMEM”
as §2, §3

[3] = tested on: EOC 216H primary ovarian cancer cells; test: MTS viability, primary epithelial ovarian cancer cells EOC 216H; format: cell-based; conditions: Homo sapiens
Procedure: (§4) FIG. 2L to 2N. Effects of compounds 1, 56 or 69 on the viability of primary epithelial ovarian cancer cells grown as adherent and spheroid cultures. EOC cells were isolated from the ascites of ovarian cancer patients. Cells were seeded in regular 96-well plates and grown as adherent cultures. 24 h after seeding the cells were incubated with compounds 1, 56, or 69 for 48 h and the viability of the cells were determined with the MTS assay. Spheroid cultures were obtained by seeding the cells in ultra-low adhesion 96-well plates for 3 days. The spheroids were incubated with compounds 1, 56 or 69 for 3 days. At the end of the incubations, MTS reagent (20% vol/vol) was added and the plates were incubated for 1-4 h. The OD490 was read with a plate reader. Wells with media but no cells were treated in similar fashion and the values utilized as blank. The results represent the mean±standard deviation of 6 independent determinations.
(§5) 4.3.1.2. Isolation of primary epithelial ovarian cancer cells (EOC) from ascites fluid of ovarian cancer patients. The isolation of EOC cells from the ascites fluid of ovarian cancer patients was performed as described by Shepherd et al 2007, Nature protocols 1, 2643-2649). The cells were grown in DMEM/F12 supplemented with 10% FBS medium. 4.3.2. Isolation of breast cancer stem cells from BT-474, prostate cancer stem cells from DU145, and ovarian cancer stem cells from A2780cp cell lines and determination of the effect of GAELs on the viability of the cancer stem cells.

[4] = tested on: EOC216B primary ovarian cancer cells; test: MTS viability, primary epithelial ovarian cancer cells EOC216B; format: cell-based; conditions: Homo sapiens
Procedure: as §4, §5

[5] = tested on: EOC258 primary ovarian cancer cells; test: MTS viability, primary epithelial ovarian cancer cells EOC258; format: cell-based; conditions: Homo sapiens
Procedure: as §4, §5

[6] = tested on: EOC260 primary ovarian cancer cells; test: MTS viability, primary epithelial ovarian cancer cells EOC260; format: cell-based; conditions: Homo sapiens; adherent culture, 48 h
Procedure: as §4
4.3.1.2. Isolation of primary epithelial ovarian cancer cells (EOC) from ascites fluid of ovarian cancer patients. The isolation of EOC cells from the ascites fluid of ovarian cancer patients was performed as described by Shepherd et al 2007, Nature protocols 1, 2643-2649). The cells were grown in DMEM/F12 supplemented with 10% FBS medium. 4.3.2. […]

[7] = Table 1A, 48 h, read-out: CC50 values JIMT1
[8] = Table 1B, 48 h, read-out: CC90 values JIMT1
[9] = Table 1A, 48 h, MTS, read-out: CC50 values BT474
[10] = Table 1B, 48 h, MTS, read-out: CC90 values BT474
[11] = Homo sapiens, JIMT-1, Table 5, 48 h, read-out: CC50 JIMT1
[12] = Homo sapiens, JIMT-1, Table 5, 48 h, read-out: CC90 JIMT1
[13] = adherent culture, 48 h, read-out: CC50 values EOC 216H Adherent
[14] = spheroid culture, 3 days, read-out: CC50 values EOC 216H Spheroid
[15] = 72 h, spheroid culture, 3 days, read-out: CC50 values EOC216B Spheroid
[16] = adherent culture, 48 h, read-out: CC50 values EOC216B Adherent
[17] = 72 h, spheroid culture, 3 days, read-out: CC50 values EOC258 Spheroid
[18] = adherent culture, 48 h, read-out: CC50 values EOC258 Adherent

Compound	CC50 [1, 7]	CC90 [1, 8]	CC50 [2, 9]	CC90 [2, 10]	CC50 [1, 11]	CC90 [1, 12]	CC50 [3, 13]	CC50 [3, 14]	CC50 [4, 15]	CC50 [4, 16]	CC50 [5, 17]	CC50 [5, 18]	CC50 [6]	further results
CCCCCCCCCCCCCCCCOCC(CO[C@@H]1O[C@H](CN)[C@@H](O)[C@H](O)[C@H]1N)O[C@@H]1O[C@H](CN)[C@@H](O)[C@H](O)[C@H]1N (stereo partly drawn) [Compound 5, 1-O-Hexadecyloxy-2S/R, 3-di(-2′,6′-diamino-2′, 6′-dideoxy-β-D-glucopyranosyl)-glycerol]	> 30 µM	> 30 µM	> 30 µM	> 30 µM										
CCCCCCCCCCCCCCCCOC[C@H](CO[C@H]1O[C@H](CN)[C@@H](O)[C@H](O)[C@H]1N)OC [Compound 1, 1-O-Hexadecyl-2-O-methyl-3-O-(2′,6′-diamino-2′,6′-dideoxy-α-D-glucopyranosyl)-sn-glycerol]					3.5 µM	4.9 µM	0.15 µM	0.21 µM	0.6 µM	0.24 µM	0.6 µM	0.3 µM	0.2 µM	CC50 ([1]; Homo sapiens, JIMT-1, Table 1A, 48 h, read-out: CC50 values JIMT1): 3.5 µM; CC90 ([1]; Homo sapiens, JIMT-1, Table 1B, 48 h, read-out: CC90 values JIMT1): 4.9 µM; CC50 ([2]; Homo sapiens, BT-474, Table 1A, 48 h, MTS, read-out: CC50 values BT474): 7.5 µM; CC90 ([2]; Homo sapiens, BT-474, Table 1B, 48 h, MTS, read-out: CC90 values BT474): 9.5 µM; CC50 ([2]; Homo sapiens, BT-474, Table 5, 48 h, MTS, read-out: CC50 B1474): 7.5 µM
CCCCCCCCCCCCCCCCOC[C@H](COC1O[C@H](CNCCCCCCCCCCCCN)[C@@H](O)[C@H](O)[C@H]1N)OC (stereo partly drawn) [Compound 73, 1-O-Hexadecyl-2-O-methyl-3-O-[6′-N-(12-aminododecyl)-2′,6′-diamino-2′,6′-dideoxy-glucopyranoside]-sn-glycerol]														CC50 ([1]; Table 6, 48 h, read-out: JIMT1 CC50): 3.4 µM; CC90 ([1]; Table 6, 48 h, read-out: JIMT1 CC90): 4.6 µM; CC50 ([2]; Table 6, 48 h, MTS, read-out: BT474 CC50): 1.6 µM; CC90 ([2]; Table 6, 48 h, MTS, read-out: BT474 CC90): 4.2 µM
CCCCCCCCCCCCCCCCOCCCO[C@@H]1O[C@H](CN)[C@@H](O)[C@H](O)[C@H]1N [Compound 4, 1-O-Hexadecyl-2-deoxy-3-O-(2′6′-diamino-2′,6′-dideoxy-β-D-glucopyranosyl)-sn-glycerol]	4 µM	6 µM	8.5 µM	17.5 µM										
CCCCCCCCCCCCCCCCOCC(CO[C@@H]1OC(CO)[C@H](O)[C@H](O)C1N)OC (stereo partly drawn) [Compound 69]					6.5 µM	11 µM	1.02 µM	1.5 µM	1.25 µM	0.56 µM	1.2 µM	1.4 µM	0.3 µM	CC50 ([1]; Homo sapiens, JIMT-1, Table 2A, 48 h, read-out: CC50 values JIMT1): 6.5 µM; CC90 ([1]; Homo sapiens, JIMT-1, Table 2B, 48 h, read-out: CC90 values JIMT1): 11 µM
CCCCCCCCCCCCCCCCOC[C@@H](CN=[N+]=[N-])O[C@@H]1O[C@H](CO)[C@@H](O)[C@H](O)[C@H]1N [Compound 6, 1-O-Hexadecyloxy-2R-(2′-amino-2′-deoxy-β-D-glucopyranosyl)-3-azido glycerol]	9.5 µM	13.5 µM	22 µM	28 µM										CC50 ([2]; read-out: CC50 against BT 474 cell lines): 22 µM
